Reference: patent publication US6890706B2, “Process for removing stain in a photographic material” (Ciba Specialty Chemicals Corporation, priority 1999, dated 2005)

experiment: Solubility in 0.2M K2CO3 solution (pH of a developer solution); format: physicochemical; conditions: room temperature

Solubility of the active substance in K2CO3 0.2M solution [%]	Structure (SMILES)
39.0	O=C([O-])CC(Nc1nc(Nc2ccc(/C=C/c3ccc(Nc4nc(Nc5cc(S(=O)(=O)[O-])ccc5S(=O)(=O)[O-])nc(NC(CC(=O)[O-])C(=O)[O-])n4)cc3S(=O)(=O)[O-])c(S(=O)(=O)[O-])c2)nc(Nc2cc(S(=O)(=O)[O-])ccc2S(=O)(=O)[O-])n1)C(=O)[O-].[Na+].[Na+].[Na+].[Na+].[Na+].[Na+].[Na+].[Na+].[Na+].[Na+] (stereo not shown) [C]
3.4	COc1nc(NCCS(=O)(=O)[O-])nc(Nc2ccc(/C=C/c3ccc(Nc4nc(OC)nc(N(CCO)CCO)n4)cc3S(=O)(=O)[O-])c(S(=O)(=O)[O-])c2)n1.[Na+].[Na+].[Na+] [Comp-1, reference compound]
6.6	O=S(=O)([O-])c1ccc(Nc2nc(Nc3ccc(/C=C/c4ccc(Nc5nc(Nc6ccc(S(=O)(=O)[O-])cc6S(=O)(=O)[O-])nc(N6CCOCC6)n5)cc4S(=O)(=O)[O-])c(S(=O)(=O)[O-])c3)nc(N3CCOCC3)n2)c(S(=O)(=O)[O-])c1.[Na+].[Na+].[Na+].[Na+].[Na+].[Na+] [Comp-3, reference compound]
38.5	O=C([O-])CN(CC(=O)[O-])c1nc(Nc2ccccc2)nc(Nc2ccc(/C=C/c3ccc(Nc4nc(Nc5ccccc5)nc(N(CC(=O)[O-])CC(=O)[O-])n4)cc3S(=O)(=O)[O-])c(S(=O)(=O)[O-])c2)n1.[Na+].[Na+].[Na+].[Na+].[Na+].[Na+] [E]

The remaining lines, values behind:

Structure (SMILES)	Solubility of the active substance in K2CO3 0.2M solution [%]
O=C([O-])CC(Nc1nc(Nc2ccccc2)nc(Nc2ccc(/C=C/c3ccc(Nc4nc(Nc5ccccc5)nc(NC(CC(=O)[O-])C(=O)[O-])n4)cc3S(=O)(=O)[O-])c(S(=O)(=O)[O-])c2)n1)C(=O)[O-].[Na+].[Na+].[Na+].[Na+].[Na+].[Na+] (stereo not shown) [B]	25.6
O=C(O)CN(CC(=O)O)c1nc(Nc2ccc(/C=C/c3ccc(Nc4nc(Nc5cc(S(=O)(=O)O)ccc5S(=O)(=O)O)nc(N(CC(=O)O)CC(=O)O)n4)cc3S(=O)(=O)O)c(S(=O)(=O)O)c2)nc(Nc2cc(S(=O)(=O)O)ccc2S(=O)(=O)O)n1.[Na+].[Na+].[Na+].[Na+].[Na+].[Na+].[Na+].[Na+].[Na+].[Na+] [G]	32.0
CN(CC(=O)[O-])c1nc(Nc2ccc(/C=C/c3ccc(Nc4nc(Nc5cc(S(=O)(=O)[O-])ccc5S(=O)(=O)[O-])nc(N(C)CC(=O)[O-])n4)cc3S(=O)(=O)[O-])c(S(=O)(=O)[O-])c2)nc(Nc2cc(S(=O)(=O)[O-])ccc2S(=O)(=O)[O-])n1.[Na+].[Na+].[Na+].[Na+].[Na+].[Na+].[Na+].[Na+] [H]	32.0
